Patent US5468728A, “Use of orally absorbable motilin preparations to enhance motility of digestive tract” (Sanwa Kagaku Kenkyusho Co., Ltd., priority 1991, dated 1995)

Tested on: intestinal tracts
Assay: Contraction of the intestinal tracts in dogs by the balloon method, intravenous and nasal administration
Format: in vivo
Text: L-leucine-13-motilin (A) and L-leucine-13-motilin-homoserin (B) were administrated to dogs through an intravenous route ([…]) by the ballon method to determine their activities on the contraction of the intestinal tracts, and the action of the surface active agent on promoting the absorption of the active substances administrated through a nasal administration was estimated in terms of percentage relative to the activity--100%-- of L-leucine-13-motilin administrated through an intravenous route on the contraction.
L-leucine-13-motilin-homoserine and L-leucine-13-motilin were each dissolved in purified water to prepare an aqueous solution, which was then aseptically poured into a vial in such a way that it contained the active substance in an amount of 1 mg when calculated as polypeptide. Each vial was finally sealed together and freeze-dried. For use, this vial is dissolved in physiological saline for injection.

[1] = Intravenous Administration (2.0 μg/kg/hr)
[2] = Nasal Administration (100 μg/kg/hr), Control = injection preparation without surface active agent

Substance	activity on the contraction of the intestinal tracts, percentage relative to L-leucine-13-motilin intravenous (100%) [1]	activity on the contraction of the intestinal tracts, percentage relative to L-leucine-13-motilin intravenous (100%) [2]
L-leucine-13-motilin-homoserine [B]	115 ± 5%	≤ 30%
L-leucine-13-motilin [A]	100 ± 0%	No activity found
